According to US20060009478A1, “Methods for the treatment of back pain” (priority 2003, published 2006):

Test system: patients with moderate to severe chronic low back pain
Test: Pain intensity (daily diary, 11-point numerical scale), low back pain study with titration and 12-week fixed-dose period
Assay type: in vivo, human
Details: LOCF, ITT
Protocol: A multicenter, randomized, double-blind, active- and placebo-controlled study was designed and conducted.
In addition, adverse events and opioid-related adverse events were to be recorded in the daily diary.
For the pain intensity (PI) scale assessment, the patient was prompted with the question “How would you rate your overall pain intensity at this time?” and the PI score was recorded in the clinic at the Screening and Baseline Visits. Pain intensity was also assessed by prompting the patient with the questions “How would you rate your overall pain intensity during the past 24 hours?” and a daily PI diary score was recorded at bedtime. For both Pain Intensity prompts, the response was scored on an 11-point numerical scale (0=no pain and 10=severe pain).
The baseline average daily pain intensity score for each patient was calculated as the average of the daily bedtime pain intensity scores recorded during the 3 days immediately prior to baseline/start of titration period visit. The post-baseline average daily pain intensity scores were calculated as the average of the daily bedtime pain intensity scores recorded during the last 3 days of dosing prior to each visit. Missing data was imputed using the last-observation-carried-forward (LOCF) approach for efficacy variables in the fixed-dose period. If the first visit in the fixed-dose period was missing, the last value in the titration period was imputed forward. Unless indicated, all testing of statistical significance was two-sided, and a difference resulting in a p-value of equal to or less than 0.05 was considered statistically significant.
A primary efficacy endpoint was the percent change from baseline to the end of the fixed-dose period (Week 12) in average daily pain intensity. The percent change from baseline was calculated as [PI(baseline)−PI(fixed-dose)]/PI(baseline)*100. Data was summarized descriptively by treatment group. An analysis of covariance (ANCOVA) model including treatment and center as effects and baseline pain intensity as the covariate was used for global and pairwise inferences. Separate models were used to evaluate both the treatment by center and treatment by baseline pain intensity interaction terms.
A primary comparison of interest was oxycodone and naltrexone (e.g., BID or QID) versus oxycodone (e.g., QID). Secondary analyses included actual and percent change from baseline values of daily pain index, SF-12, and Oswestry disability index summarized descriptively by treatment group for both the titration and fixed-dose periods. Treatments were compared globally and in pairwise fashion at each visit in the fixed-dose period using an ANCOVA model that included treatment and center as effects and baseline pain intensity as the covariate. Separate models were used to evaluate both the treatment by center and treatment by baseline pain intensity interaction terms.

## COc1ccc2c3c1O[C@H]1C(=O)CC[C@@]4(O)[C@@H](C2)N(C)CC[C@]314 [OXY QID, oxycodone]
Fixed dose week 7
  Pain intensity actual value at fixed dose week 7, maximum: 10.0
  Pain intensity actual value at fixed dose week 7, mean (SD): 4.0 (2.54)
  Pain intensity actual value at fixed dose week 7, median: 3.3
  Pain intensity actual value at fixed dose week 7, minimum: 0.0
  Pain intensity change from baseline to fixed dose week 7, maximum: 3.0
  Pain intensity change from baseline to fixed dose week 7, mean (SD): −3.6 (2.69)
  Pain intensity change from baseline to fixed dose week 7, median: −4.0
  Pain intensity change from baseline to fixed dose week 7, minimum: −9.7
  Pain intensity percent change from baseline to fixed dose week 7, maximum: 42.9%
  Pain intensity percent change from baseline to fixed dose week 7, mean (SD): −46.8 (34.05) %
  Pain intensity percent change from baseline to fixed dose week 7, median: −52.9%
  Pain intensity percent change from baseline to fixed dose week 7, minimum: −100.0%
Fixed dose week 8
  Pain intensity actual value at fixed dose week 8, maximum: 10.0
  Pain intensity actual value at fixed dose week 8, mean (SD): 4.0 (2.57)
  Pain intensity actual value at fixed dose week 8, median: 3.3
  Pain intensity actual value at fixed dose week 8, minimum: 0.0
  Pain intensity change from baseline to fixed dose week 8, maximum: 3.0
  Pain intensity change from baseline to fixed dose week 8, mean (SD): −3.6 (2.67)
  Pain intensity change from baseline to fixed dose week 8, median: −3.7
  Pain intensity change from baseline to fixed dose week 8, minimum: −9.7
  Pain intensity percent change from baseline to fixed dose week 8, maximum: 42.9%
  Pain intensity percent change from baseline to fixed dose week 8, mean (SD): −46.5 (34.05) %
  Pain intensity percent change from baseline to fixed dose week 8, median: −52.4%
  Pain intensity percent change from baseline to fixed dose week 8, minimum: −100.0%
Fixed dose week 9
  Pain intensity actual value at fixed dose week 9, maximum: 10.0
  Pain intensity actual value at fixed dose week 9, mean (SD): 3.9 (2.57)
  Pain intensity actual value at fixed dose week 9, median: 3.3
  Pain intensity actual value at fixed dose week 9, minimum: 0.0
  Pain intensity change from baseline to fixed dose week 9, maximum: 3.0
  Pain intensity change from baseline to fixed dose week 9, mean (SD): −3.6 (2.70)
  Pain intensity change from baseline to fixed dose week 9, median: −4.0
  Pain intensity change from baseline to fixed dose week 9, minimum: −9.7
  Pain intensity percent change from baseline to fixed dose week 9, maximum: 42.9%
  Pain intensity percent change from baseline to fixed dose week 9, mean (SD): −47.4 (34.17) %
  Pain intensity percent change from baseline to fixed dose week 9, median: −53.3%
  Pain intensity percent change from baseline to fixed dose week 9, minimum: −100.0%
Fixed dose week 10
  Pain intensity actual value at fixed dose week 10, maximum: 10.0
  Pain intensity actual value at fixed dose week 10, mean (SD): 4.0 (2.54)
  Pain intensity actual value at fixed dose week 10, median: 3.7
  Pain intensity actual value at fixed dose week 10, minimum: 0.0
  Pain intensity change from baseline to fixed dose week 10, maximum: 3.0
  Pain intensity change from baseline to fixed dose week 10, mean (SD): −3.6 (2.66)
  Pain intensity change from baseline to fixed dose week 10, median: −3.7
  Pain intensity change from baseline to fixed dose week 10, minimum: −9.7
  Pain intensity percent change from baseline to fixed dose week 10, maximum: 42.9%
  Pain intensity percent change from baseline to fixed dose week 10, mean (SD): −46.8 (33.72) %
  Pain intensity percent change from baseline to fixed dose week 10, median: −52.0%
  Pain intensity percent change from baseline to fixed dose week 10, minimum: −100.0%
Fixed dose week 11
  Pain intensity actual value at fixed dose week 11, maximum: 10.0
  Pain intensity actual value at fixed dose week 11, mean (SD): 3.9 (2.57)
  Pain intensity actual value at fixed dose week 11, median: 3.3
  Pain intensity actual value at fixed dose week 11, minimum: 0.0
  Pain intensity change from baseline to fixed dose week 11, maximum: 3.0
  Pain intensity change from baseline to fixed dose week 11, mean (SD): −3.7 (2.70)
  Pain intensity change from baseline to fixed dose week 11, median: −4.0
  Pain intensity change from baseline to fixed dose week 11, minimum: −9.7
  Pain intensity percent change from baseline to fixed dose week 11, maximum: 42.9%
  Pain intensity percent change from baseline to fixed dose week 11, mean (SD): −48.2 (34.19) %
  Pain intensity percent change from baseline to fixed dose week 11, median: −55.6%
  Pain intensity percent change from baseline to fixed dose week 11, minimum: −100.0%
Fixed dose week 12
  Pain intensity actual value at fixed dose week 12, maximum: 10.0
  Pain intensity actual value at fixed dose week 12, mean (SD): 4.0 (2.53)
  Pain intensity actual value at fixed dose week 12, median: 3.7
  Pain intensity actual value at fixed dose week 12, minimum: 0.0
  Pain intensity change from baseline to fixed dose week 12, maximum: 3.0
  Pain intensity change from baseline to fixed dose week 12, mean (SD): −3.5 (2.65)
  Pain intensity change from baseline to fixed dose week 12, median: −3.7
  Pain intensity change from baseline to fixed dose week 12, minimum: −9.7
  Pain intensity percent change from baseline to fixed dose week 12, maximum: 42.9%
  Pain intensity percent change from baseline to fixed dose week 12, mean (SD): −46.2 (33.60) %
  Pain intensity percent change from baseline to fixed dose week 12, median: −52.0%
  Pain intensity percent change from baseline to fixed dose week 12, minimum: −100.0%
